Data: patent US20190159450A1, “PYRIDINE-BASED COMPOUND INCLUDING ISOXAZOLINE RING AND USE THEREOF AS HERBICIDE” (MOGHU RESEARCH CENTER LTD., priority 2016, published 2019)

Key:
Format in all cases: in vivo
wheat [1] = experiment: Herbicidal activity test, pre-weeds emergence treatment (crop damage); details: assessed 2 to 3 weeks after spraying, scale 0-10 (0: no effect, 10: complete death)
Protocol: (§1) A rectangular plastic pot with a surface area of 300 cm^2 was filled with sandy loam soil and mixed soil at a ratio of 1:1, and four kinds of weeds including Quamoclit pennata, Abutilon theophrasti Medicus, and Aeschynomene indica, Xanthium strumarium were sown therein. In another pot made in the same way, three kinds of crop seeds including maize, wheat, and rice were sown. The pots were watered and one day later, a medicament was sprayed thereon. The spraying was performed by using a track sprayer (R&D Sprayer, USA) equipped with Teejet 8002EVS (Spraying Systems Co., USA) nozzle, and the spray amount was controlled to be 1000 L/ha. A spray solution was prepared by dissolving the compound of each example or a control material in acetone, and then, adding the same amount of 0.1% (v/v) tween 20 aqueous solution thereto. The spray amount was 200 g/ha. The pots were placed in a greenhouse in which the temperature was maintained at 25° C. to 30° C. during the day and 15° C. to 25° C. during the night, and was regularly watered. After 2 to 3 weeks from the spraying of the compounds or the control material, the efficacy and the damages on each weed and each crop were assessed according to the scale of 0-10 (0: no effect, 10: complete death) scale and the results are shown in Table 3 below.
(§2) Pots for crops and weeds were prepared in the same manner as the test method illustrated in Table 3, and three kinds of weeds selected from Quamoclit pennata, Abutilon theophrasti Medicus, and Aeschynomene indica, Xanthium strumarium were used.

maize [2] = experiment: as above; details: assessed 2 to 3 weeks after spraying, scale 0-10 (0: no effect, 10: complete death)
Protocol: as §1, §2

rice [3] = experiment: as above; details: assessed 2 to 3 weeks after spraying, scale 0-10 (0: no effect, 10: complete death)
Protocol: as §1, §2

Xanthium strumarium [4] = experiment: Herbicidal activity test, post-weeds emergence treatment; details: assessed after 2 to 3 weeks, 0: no effect, 10: complete death
Protocol: as §1
(§3) Pots for crops and weeds were prepared in the same manner as in Experimental Example 1, and then, when the crops and the weeds were raised up to 2 weeks roughly on a third-leaf stage, the compounds and the control material were sprayed thereon in the same manner as described above. The spray amount was 200 g/ha. After 2 to 3 weeks from the spraying of the test substance or the control substance, the efficacy and the damages on each weed and each crop were assessed according to the scale of 0-10 (0: no effect, 10: complete death) scale.
as §2, with “5,” for “3,”, “four” for “three”, “used. The spray amount was 200 g/ha for crops and 50 g/ha for weeds.” for “used.”

Aeschynomene indica [5] = experiment: as above; details: assessed after 2 to 3 weeks, 0: no effect, 10: complete death
Protocol: as §1, §3
as §2, with “5,” for “3,”, “four” for “three”, “used. The spray amount was 200 g/ha for crops and 50 g/ha for weeds.” for “used.”

Quamoclit pennata [6] = experiment: as above; details: assessed after 2 to 3 weeks, 0: no effect, 10: complete death
Protocol: as §1, §3
as §2, with “5,” for “3,”, “four” for “three”, “used. The spray amount was 200 g/ha for crops and 50 g/ha for weeds.” for “used.”

[7] = test system: Abutilon theophrasti Medicus; experiment: as above; details: assessed after 2 to 3 weeks, 0: no effect, 10: complete death
Protocol: as §1, §3
as §2, with “5,” for “3,”, “four” for “three”, “used. The spray amount was 200 g/ha for crops and 50 g/ha for weeds.” for “used.”

wheat [8] = experiment: Herbicidal activity test, post-weeds emergence treatment (crop damage); details: assessed after 2 to 3 weeks, 0: no effect, 10: complete death
Protocol: as §1, §3
as §2, with “5,” for “3,”, “four” for “three”, “used. The spray amount was 200 g/ha for crops and 50 g/ha for weeds.” for “used.”

maize [9] = experiment: as above; details: assessed after 2 to 3 weeks, 0: no effect, 10: complete death
Protocol: as §1, §3
as §2, with “5,” for “3,”, “four” for “three”, “used. The spray amount was 200 g/ha for crops and 50 g/ha for weeds.” for “used.”

rice [10] = experiment: as above; details: assessed after 2 to 3 weeks, 0: no effect, 10: complete death
Protocol: as §1, §3
as §2, with “5,” for “3,”, “four” for “three”, “used. The spray amount was 200 g/ha for crops and 50 g/ha for weeds.” for “used.”

Xanthium strumarium [11] = experiment: Herbicidal activity test, pre-weeds emergence treatment; details: assessed 2 to 3 weeks after spraying, scale 0-10 (0: no effect, 10: complete death)
Protocol: as §1, §2

Aeschynomene indica [12] = experiment: as above; details: assessed 2 to 3 weeks after spraying, scale 0-10 (0: no effect, 10: complete death)
Protocol: as §1, §2

Quamoclit pennata [13] = experiment: as above; details: assessed 2 to 3 weeks after spraying, scale 0-10 (0: no effect, 10: complete death)
Protocol: as §1, §2

[14] = test system: Abutilon theophrasti Medicus; experiment: as above; details: assessed 2 to 3 weeks after spraying, scale 0-10 (0: no effect, 10: complete death)
Protocol: as §1, §2

[15] = spray amount 50 g/ha for weeds, Table 6
[16] = spray amount 200 g/ha for crops, Table 6

SMILES | PRE TRZAW (wheat), damage score (wheat [1]; Table 3, 200 g/ha) | PRE ZEAMX (maize), damage score (maize [2]; Table 3, 200 g/ha) | PRE ORYSA (rice), damage score (rice [3]; Table 3, 200 g/ha) | XANST (Xanthium strumarium) herbicidal efficacy, scale of 0-10 (Xanthium strumarium [4]; spray amount 200 g/ha, Table 5) | AESIN (Aeschynomene indica) herbicidal efficacy, scale of 0-10 (Aeschynomene indica [5]; spray amount 200 g/ha, Table 5) | IPOAN (Quamoclit pennata) herbicidal efficacy, scale of 0-10 (Quamoclit pennata [6]; spray amount 200 g/ha, Table 5) | ABUTH (Abutilon theophrasti Medicus) herbicidal efficacy, scale of 0-10 ([7]; spray amount 200 g/ha, Table 5) | TRZAW (wheat) damage, scale of 0-10 (wheat [8]; spray amount 200 g/ha, Table 5) | ZEAMX (maize) damage, scale of 0-10 (maize [9]; spray amount 200 g/ha, Table 5) | ORYSA (rice) damage, scale of 0-10 (rice [10]; spray amount 200 g/ha, Table 5) | PRE XANST (Xanthium strumarium), efficacy score (Xanthium strumarium [11]; Table 3, 200 g/ha) | PRE AESIN (Aeschynomene indica), efficacy score (Aeschynomene indica [12]; Table 3, 200 g/ha) | PRE IPOAN (Quamoclit pennata), efficacy score (Quamoclit pennata [13]; Table 3, 200 g/ha) | PRE ABUTH (Abutilon theophrasti Medicus), efficacy score ([14]; Table 3, 200 g/ha) | PRE TRZAW (wheat), damage score (wheat [1]; Table 4, 200 g/ha) | PRE ZEAMX (maize), damage score (maize [2]; Table 4, 200 g/ha) | PRE ORYSA (rice), damage score (rice [3]; Table 4, 200 g/ha) | XANST (Xanthium strumarium) herbicidal efficacy, scale of 0-10 (Xanthium strumarium [4]; [15]) | AESIN (Aeschynomene indica) herbicidal efficacy, scale of 0-10 (Aeschynomene indica [5]; [15]) | IPOAN (Quamoclit pennata) herbicidal efficacy, scale of 0-10 (Quamoclit pennata [6]; [15]) | other results
COC(=O)c1nc(C2CC(Cl)=NO2)cc(NC(C)=O)c1Cl (stereo not drawn) [Compound 1, methyl 4-acetamido-3-chloro-6-(3-chloro-4,5-dihydroisoxazol-5-yl)picolinate] | 1 | 0 | 0 | 10 | 10 | 8 | 8 | 1 | 0 | 1 | 9 | 10 | 9 | 8 | – | – | – | – | – | – | –
COC(=O)c1nc(C2CC(Br)=NO2)cc(NC(C)=O)c1Cl (stereo not drawn) [Compound 3, methyl 4-acetamido-3-chloro-6-(3-bromo-4,5-dihydroisoxazol-5-yl)picolinate] | 0 | 0 | 0 | 10 | 10 | 6 | 3 | 0 | 0 | 0 | 8 | 10 | 8 | 10 | – | – | – | – | – | – | –
COC(=O)c1nc(C2CC(C(F)(F)F)=NO2)cc(NC(C)=O)c1Cl (stereo not drawn) [Compound 4, methyl 4-acetamido-3-chloro-6-(3-(trifluoromethyl)-4,5-dihydroisoxazol-5-yl)picolinate] | 0 | 0 | 0 | 8 | 10 | 3 | 3 | 0 | 0 | 0 | 6 | 8 | 7 | 6 | – | – | – | – | – | – | –
COC(=O)c1nc(C2CC(Br)=NO2)cc(N)c1Cl (stereo not drawn) [Compound 33, methyl 4-amino-3-chloro-6-(3-bromo-4,5-dihydroisoxazol-5-yl)picolinate] | – | – | – | – | – | – | – | – | – | – | – | – | – | – | 0 | 2 | 0 | 10 | 9 | 5 | ABUTH (Abutilon theophrasti Medicus) herbicidal efficacy, scale of 0-10 [7, 15]: 7; TRZAW (wheat) damage, scale of 0-10 (wheat [8]; [16]): 0; ZEAMX (maize) damage, scale of 0-10 (maize [9]; [16]): 0; ORYSA (rice) damage, scale of 0-10 (rice [10]; [16]): 0; PRE XANST (Xanthium strumarium), efficacy score (Xanthium strumarium [11]; Table 4, 200 g/ha): 10; PRE AESIN (Aeschynomene indica), efficacy score (Aeschynomene indica [12]; Table 4, 200 g/ha): 10; PRE IPOAN (Quamoclit pennata), efficacy score (Quamoclit pennata [13]; Table 4, 200 g/ha): 6; PRE ABUTH (Abutilon theophrasti Medicus), efficacy score ([14]; Table 4, 200 g/ha): 6
Nc1cc(C2CC(Br)=NO2)nc(C(=O)O)c1Cl (stereo not drawn) [Compound 34, 4-amino-3-chloro-6-(3-bromo-4,5-dihydroisoxazol-5-yl)picolinic acid] | – | – | – | – | – | – | – | – | – | – | – | – | – | – | 0 | 0 | 0 | 10 | 10 | 3 | ABUTH (Abutilon theophrasti Medicus) herbicidal efficacy, scale of 0-10 [7, 15]: 6; TRZAW (wheat) damage, scale of 0-10 (wheat [8]; [16]): 0; ZEAMX (maize) damage, scale of 0-10 (maize [9]; [16]): 0; ORYSA (rice) damage, scale of 0-10 (rice [10]; [16]): 2; PRE XANST (Xanthium strumarium), efficacy score (Xanthium strumarium [11]; Table 4, 200 g/ha): 10; PRE AESIN (Aeschynomene indica), efficacy score (Aeschynomene indica [12]; Table 4, 200 g/ha): 10; PRE IPOAN (Quamoclit pennata), efficacy score (Quamoclit pennata [13]; Table 4, 200 g/ha): 10; PRE ABUTH (Abutilon theophrasti Medicus), efficacy score ([14]; Table 4, 200 g/ha): 9
COC(=O)c1nc(C2CC(Cl)=NO2)cc(N)c1Cl (stereo not drawn) [Compound 37, methyl 4-amino-3-chloro-6-(3-chloro-4,5-dihydroisoxazol-5-yl)picolinate] | 0 | 0 | 0 | 10 | 10 | 8 | 10 | 1 | 0 | 1 | 10 | 10 | 10 | 10 | 0 | 0 | 1 | 10 | 10 | 8 | ABUTH (Abutilon theophrasti Medicus) herbicidal efficacy, scale of 0-10 [7, 15]: 10; TRZAW (wheat) damage, scale of 0-10 (wheat [8]; [16]): 0; ZEAMX (maize) damage, scale of 0-10 (maize [9]; [16]): 0; ORYSA (rice) damage, scale of 0-10 (rice [10]; [16]): 0; PRE XANST (Xanthium strumarium), efficacy score (Xanthium strumarium [11]; Table 4, 200 g/ha): 10; PRE AESIN (Aeschynomene indica), efficacy score (Aeschynomene indica [12]; Table 4, 200 g/ha): 10; PRE IPOAN (Quamoclit pennata), efficacy score (Quamoclit pennata [13]; Table 4, 200 g/ha): 7; PRE ABUTH (Abutilon theophrasti Medicus), efficacy score ([14]; Table 4, 200 g/ha): 10
Nc1cc(C2CC(Cl)=NO2)nc(C(=O)O)c1Cl (stereo not drawn) [Compound 38, 4-amino-3-chloro-6-(3-chloro-4,5-dihydroisoxazol-5-yl)picolinic acid] | 2 | 0 | 7 | 10 | 10 | 9 | 10 | 0 | 1 | 3 | 10 | 10 | 10 | 10 | – | – | – | – | – | – | –
COC(=O)c1nc(C2CC(C(F)(F)F)=NO2)cc(N)c1Cl (stereo not drawn) [Compound 39, methyl 4-amino-3-chloro-6-(3-trifluoromethyl-4,5-dihydroisoxazol-5-yl)picolinate] | 0 | 0 | 1 | 10 | 10 | 4 | 3 | 0 | 0 | 0 | 6 | 8 | 6 | 4 | – | – | – | – | – | – | –
